Data published in US9776962B2, “Aromatic compounds with GPR40 agonistic activity” (TAKEDA PHARMACEUTICAL COMPANY LIMITED, priority 2013, dated 2017).

Molecular target: T1, human GPR40 (Homo sapiens, UniProt O14842)
T1 construct: expressed in transfected cells
Assay: Evaluation of human GPR40 agonist activity with increase in intracellular Ca2+ concentration as an index (FLIPR)
Type: cell-based
Details: test compound 1 μM; CHO(dhfr−) cells stably expressing human GPR40; 100% = 10 μM compound of Example 153, 0% = DMSO
Outline: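 CHO(dhfr−) cells stably expressing full-length human GPR40 were loaded with Ca2+ probe for 1 h at room temperature, then given test compound at 1 μM final. Fluorescence was followed on FLIPR, with activity scaled to a reference agonist at 10 μM (100%) and DMSO (0%).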

T1 sequence (O14842 whole entry): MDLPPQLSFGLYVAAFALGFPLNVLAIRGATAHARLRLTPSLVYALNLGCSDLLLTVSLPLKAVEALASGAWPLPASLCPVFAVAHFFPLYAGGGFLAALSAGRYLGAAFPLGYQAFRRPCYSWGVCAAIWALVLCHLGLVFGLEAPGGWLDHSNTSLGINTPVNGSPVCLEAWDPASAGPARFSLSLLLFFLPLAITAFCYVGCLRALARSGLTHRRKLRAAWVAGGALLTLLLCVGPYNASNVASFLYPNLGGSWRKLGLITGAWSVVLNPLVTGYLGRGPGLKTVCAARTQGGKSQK

Row | activation at 1 µM [%] | Activity (human GPR40 agonist activity) [%] | Compound
1 | 87 | – | COc1ccc(C(=O)N(c2ccccn2)C2CCC2)c(N2CCC(COc3cc(C(CC(=O)O)C4CC4)ccn3)CC2)c1 (stereo not shown) [Example 151, 3-(2-((1-(2-(cyclobutyl(pyridin-2-yl)carbamoyl)-5-methoxyphenyl)piperidin-4-yl)methoxy)pyridin-4-yl)-3-cyclopropylpropanoic acid]
2 | 98 | – | COc1ccc(C(=O)N(CC2CC2)c2nccc(C(F)(F)F)n2)c(N2CCC(COc3cc(C(CC(=O)O)C4CC4)ccn3)CC2)c1 (stereo not shown) [Example 237, 3-cyclopropyl-3-(2-((1-(2-((cyclopropylmethyl) (4-(trifluoromethyl)-pyrimidin-2-yl)carbamoyl)-5-methoxyphenyl)piperidin-4-yl)methoxy)pyridin-4-yl)propanoic acid]
3 | 98 | – | COc1ccc(C(=O)N(CC(C)(C)C)c2cc(C)ccn2)c(N2CCC(COc3cc(C(CC(=O)O)C4CC4)ccn3)CC2)c1 (stereo not shown) [Example 112, 3-cyclopropyl-3-(2-((1-(2-((2,2-dimethylpropyl)(4-methylpyridin-2-yl)carbamoyl)-5-methoxyphenyl)piperidin-4-yl)methoxy)pyridin-4-yl)propanoic acid]
4 | 85 | – | COc1ccc(C(=O)N(CC(C)(C)OC)c2ccccn2)c(N2CCC(COc3cc(C(CC(=O)O)C4CC4)ccn3)CC2)c1 (stereo not shown) [Example 131, 3-cyclopropyl-3-(2-((1-(5-methoxy-2-((2-methoxy-2-methylpropyl)(pyridin-2-yl)carbamoyl)phenyl)piperidin-4-yl)methoxy)pyridin-4-yl)propanoic acid]
5 | 100 | – | COc1ccc(C(=O)N(CC(C)(C)F)c2cccc(C)n2)c(N2CCC(COc3cc(C(CC(=O)O)C4CC4)ccn3)CC2)c1 (stereo not shown) [Example 152, 3-cyclopropyl-3-(2-((1-(2-((2-fluoro-2-methylpropyl)(6-methylpyridin-2-yl)carbamoyl)-5-methoxyphenyl)piperidin-4-yl)methoxy)pyridin-4-yl)propanoic acid]
6 | 81 | – | COc1ccc(C(=O)N(CC2CC2)c2ccccn2)c(N2CCC(COc3cc(C(CC(=O)O)C4CC4)ccn3)CC2)c1 (single isomer, unassigned) [Example 141, 3-cyclopropyl-3-(2-((1-(2-((cyclopropylmethyl)(pyridin-2-yl)carbamoyl)-5-methoxyphenyl)piperidin-4-yl)methoxy)pyridin-4-yl)propanoic acid]
7 | 95 | – | COc1ccc(C(=O)N(CC(C)C)c2cccnc2OC)c(N2CCC(COc3cc(C(CC(=O)O)C4CC4)ccn3)CC2)c1 (stereo not shown) [Example 136, 3-cyclopropyl-3-(2-((1-(5-methoxy-2-((2-methoxypyridin-3-yl)(2-methylpropyl)carbamoyl)phenyl)piperidin-4-yl)methoxy)pyridin-4-yl)propanoic acid]
8 | – | 104 | COc1ccc(C(=O)N(CC(C)(C)C)c2cccc(C)n2)c(N2CCC(COc3cc(C(CC(=O)O)C4CC4)ccn3)CC2)c1 (stereo not shown) [Example 110, 3-cyclopropyl-3-(2-((1-(2-((2,2-dimethylpropyl)(6-methylpyridin-2-yl)carbamoyl)-5-methoxyphenyl)piperidin-4-yl)methoxy)pyridin-4-yl)propanoic acid]
9 | 97 | – | COc1ccc(C(=O)N(CC(C)(C)OCC(F)(F)F)c2ccccn2)c(N2CCC(COc3cc(C(CC(=O)O)C4CC4)ccn3)CC2)c1 (stereo not shown) [Example 161, 3-cyclopropyl-3-(2-((1-(5-methoxy-2-((2-methyl-2-(2,2,2-trifluoroethoxy)propyl)(pyridin-2-yl)carbamoyl)phenyl)piperidin-4-yl)methoxy)pyridin-4-yl)propanoic acid]
10 | 96 | – | CCC(C)(C)N(C(=O)c1ccc(OC)cc1N1CCC(COc2cc(C(CC(=O)O)C3CC3)ccn2)CC1)c1ccccn1 (stereo not shown) [Example 145, 3-cyclopropyl-3-(2-((1-(5-methoxy-2-((2-methylbutan-2-yl)(pyridin-2-yl)carbamoyl)phenyl)piperidin-4-yl)methoxy)pyridin-4-yl)propanoic acid]
11 | 90 | – | COc1ccc(C(=O)N(CC(F)F)c2ncccn2)c(N2CCC(COc3cc(C(CC(=O)O)C4CC4)ccn3)CC2)c1 (stereo not shown) [Example 167, 3-cyclopropyl-3-(2-((1-(2-((2,2-difluoroethyl)(pyrimidin-2-yl)carbamoyl)-5-methoxyphenyl)piperidin-4-yl)methoxy)pyridin-4-yl)propanoic acid]
12 | 81 | – | COc1ccc(C(=O)N(CC2CCOCC2)c2ccccn2)c(N2CCC(COc3cc(C(CC(=O)O)C4CC4)ccn3)CC2)c1 (stereo not shown) [Example 196, 3-cyclopropyl-3-(2-((1-(5-methoxy-2-(pyridin-2-yl(tetrahydro-2H-pyran-4-ylmethyl)carbamoyl)phenyl)piperidin-4-yl)methoxy)pyridin-4-yl)propanoic acid]
13 | 99 | – | COc1ccc(C(=O)N(CC(C)(F)F)c2ccccn2)c(N2CCC(COc3cc(C(CC(=O)O)C4CC4)ccn3)CC2)c1 (stereo not shown) [Example 126, 3-cyclopropyl-3-(2-((1-(2-((2,2-difluoropropyl)(pyridin-2-yl)carbamoyl)-5-methoxyphenyl)piperidin-4-yl)methoxy)pyridin-4-yl)propanoic acid]
14 | 84 | – | COc1ccc(C(=O)N(CC(C)(C)C#N)c2ccccn2)c(N2CCC(COc3cc(C(CC(=O)O)C4CC4)ccn3)CC2)c1 (stereo not shown) [Example 134, 3-(2-((1-(2-((2-cyano-2-methylpropyl)(pyridin-2-yl)carbamoyl)-5-methoxyphenyl)piperidin-4-yl)methoxy)pyridin-4-yl)-3-cyclopropylpropanoic acid]

The remaining lines, values behind:

Row | Compound | activation at 1 µM [%] | Activity (human GPR40 agonist activity) [%]
15 | COc1ccc(C(=O)N(CC(F)F)c2nccc(C)n2)c(N2CCC(COc3cc(C(CC(=O)O)C4CC4)ccn3)CC2)c1 (stereo not shown) [Example 172, 3-cyclopropyl-3-(2-((1-(2-((2,2-difluoroethyl)(4-methylpyrimidin-2-yl)carbamoyl)-5-methoxyphenyl)piperidin-4-yl)methoxy)pyridin-4-yl)propanoic acid] | 97 | –
16 | COc1ccc(C(=O)N(CC(F)(F)F)c2ccnc(C)n2)c(N2CCC(COc3cc(C(CC(=O)O)C4CC4)ccn3)CC2)c1 (stereo not shown) [Example 239, 3-cyclopropyl-3-(2-((1-(5-methoxy-2-((2-methyl-pyrimidin-4-yl) (2,2,2-trifluoroethyl)carbamoyl)-phenyl)piperidin-4-yl)methoxy)pyridin-4-yl)propanoic acid] | 100 | –
17 | COc1ccc(C(=O)N(CC(C)(C)OC)c2cc(C)ccn2)c(N2CCC(COc3cc(C(CC(=O)O)C4CC4)ccn3)CC2)c1 (stereo not shown) [Example 164, 3-cyclopropyl-3-(2-((1-(5-methoxy-2-((2-methoxy-2-methylpropyl)(4-methylpyridin-2-yl)carbamoyl)phenyl)piperidin-4-yl)methoxy)pyridin-4-yl)propanoic acid] | 88 | –
18 | COc1cc(N2CCC(COc3cc(C(CC(=O)O)C4CC4)ccn3)CC2)c(C(=O)N(CC(C)(C)C)c2cccc(C)n2)cc1F (stereo not shown) [Example 250, 3-cyclopropyl-3-(2-((1-(2-((2,2-dimethylpropyl)(6-methylpyridin-2-yl)carbamoyl)-4-fluoro-5-methoxyphenyl)piperidin-4-yl)methoxy)pyridin-4-yl)propanoic acid] | 91 | –
19 | COc1ccc(C(=O)N(CC(C)(C)C)c2cc(C)nc(C)n2)c(N2CCC(COc3cc(C(CC(=O)O)C4CC4)ccn3)CC2)c1 (stereo not shown) [Example 228, 3-cyclopropyl-3-(2-((1-(2-((2,2-dimethylpropyl) (2,6-dimethylpyrimidin-4-yl)carbamoyl)-5-methoxyphenyl)piperidin-4-yl)methoxy)pyridin-4-yl)propanoic acid] | 99 | –
20 | COc1ccc(C(=O)N(CC(C)(C)C)c2cc(C)cc(C)n2)c(N2CCC(COc3cc(C(CC(=O)O)C4CC4)ccn3)CC2)c1 (stereo not shown) [Example 243, 3-cyclopropyl-3-(2-((1-(2-((2,2-dimethylpropyl)(4,6-dimethylpyridin-2-yl)carbamoyl)-5-methoxyphenyl)piperidin-4-yl)methoxy)pyridin-4-yl)propanoic acid] | 101 | –
21 | COc1c(F)cc(C(=O)N(CC(C)(C)C)c2cccc(C)n2)c(N2CCC(COc3cc(C(CC(=O)O)C4CC4)ccn3)CC2)c1F (stereo not shown) [Example 253, 3-cyclopropyl-3-(2-((1-(6-((2,2-dimethylpropyl)(6-methylpyridin-2-yl)carbamoyl)-2,4-difluoro-3-methoxyphenyl)piperidin-4-yl)methoxy)pyridin-4-yl)propanoic acid] | 74 | –
22 | COc1ccc(C(=O)N2C[C@@H](C)O[C@@H](C)C2)c(N2CCC(COc3cccc(C(CC(=O)O)C4CC4)c3)CC2)c1 (stereo partly drawn) [Example 5, 3-cyclopropyl-3-(3-((1-(2-((cis-2,6-dimethylmorpholin-4-yl)carbonyl)-5-methoxyphenyl)piperidin-4-yl)methoxy)phenyl)propanoic acid] | 85 | –
23 | COc1ccc(C(=O)N(CC(C)(C)C)c2cncc(C)c2)c(N2CCC(COc3cc(C(CC(=O)O)C4CC4)ccn3)CC2)c1 (stereo not shown) [Example 231, 3-cyclopropyl-3-(2-((1-(2-((2,2-dimethylpropyl) (5-methylpyridin-3-yl)carbamoyl)-5-methoxyphenyl)piperidin-4-yl)methoxy)pyridin-4-yl)propanoic acid] | 92 | –
24 | COc1ccc(C(=O)N(CC(C)(C)C)c2cncc(Cl)n2)c(N2CCC(COc3cc(C(CC(=O)O)C4CC4)ccn3)CC2)c1 (stereo not shown) [Example 180, 3-(2-((1-(2-((6-chloropyrazin-2-yl)(2,2-dimethylpropyl)carbamoyl)-5-methoxyphenyl)piperidin-4-yl)methoxy)pyridin-4-yl)-3-cyclopropylpropanoic acid] | 105 | –
25 | COc1ccc(C(=O)N(CC(F)(F)F)c2nc(C)cc(C)n2)c(N2CCC(COc3cc(C(CC(=O)O)C4CC4)ccn3)CC2)c1 (stereo not shown) [Example 168, 3-cyclopropyl-3-(2-((1-(2-((4,6-dimethylpyrimidin-2-yl)(2,2,2-trifluoroethyl)carbamoyl)-5-methoxyphenyl)piperidin-4-yl)methoxy)pyridin-4-yl)propanoic acid] | 100 | –
